According to patent US20230416330A1, “Optimized GIP Peptide Analogues” (Antag Therapeutics ApS, priority 2019, published 2023):
Starred links: 1 amine or outer side, 2 acyl side, 3 side chain; linkers in the order of their positions; H or OH if unused. Non-standard residues stand in square brackets, D forms with d. Residues, ends and D or L forms follow the SMILES beside them. Groups on a side chain read outwards from the residue. *: point of attachment. C18 diacid = O=C(O)CCCCCCCCCCCCCCCCC(=O)*; C16 diacid = O=C(O)CCCCCCCCCCCCCCC(=O)*; γGlu = O=C(O)[C@H](CCC(=O)[*:2])N[*:1]; Adipoyl = O=C(CCCCC(=O)[*:2])[*:1]; Glutaryl = O=C(CCCC(=O)[*:2])[*:1]; AEEA = NCCOCCOCC(=O)O; Aib = CC(C)(N)C(=O)O

Columns and labels:
[1] = target: T1, human GIP receptor (Homo sapiens, UniProt P48546); assay: cAMP assay Alternative 2 (Gaddum assay), antagonist potency pKb; type: cell-based; details: Table 2C; Gaddum equation, single antagonist dose; HEK-293 hGIPR; read-out: nM (Kb)
T1 construct: host or cells: HEK-293 cells, transient transfection (Lipofectamine 2000), cDNA in pCMV-Script vector
T1 sequence (P48546 22-466): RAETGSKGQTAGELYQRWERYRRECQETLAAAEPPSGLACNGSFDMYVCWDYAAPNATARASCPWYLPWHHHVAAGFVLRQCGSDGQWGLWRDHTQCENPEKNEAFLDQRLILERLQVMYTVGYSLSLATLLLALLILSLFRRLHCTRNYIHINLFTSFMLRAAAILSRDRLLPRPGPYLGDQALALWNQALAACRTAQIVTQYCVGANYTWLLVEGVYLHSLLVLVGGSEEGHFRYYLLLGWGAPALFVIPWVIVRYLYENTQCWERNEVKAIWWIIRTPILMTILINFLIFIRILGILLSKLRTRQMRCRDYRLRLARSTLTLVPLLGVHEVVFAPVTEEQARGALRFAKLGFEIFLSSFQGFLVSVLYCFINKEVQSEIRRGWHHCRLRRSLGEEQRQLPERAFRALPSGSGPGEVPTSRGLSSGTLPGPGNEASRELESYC
Procedure: HEK293 cells were cultured in 10% CO2 and 37° C. in Dulbecco's modified Eagle's medium supplemented with 10% fetal bovine serum, 2 mM glutamine, 180 units/ml penicillin, and 45 µg/ml streptomycin. Transient transfection with hGIPR for the CisBio assay from Table 2C was performed by using Lipofectamine 2000.
Antagonist potency (pKb) was estimated in a functional setting. The estimated pKb values were calculated from the shifts of the agonist-concentration-response curves in the presence of a single dose of GIP peptide antagonists using the Gaddum equation: pKb=log(DR-1)-log(B), where DR (EC50′/EC50) is the dose ratio calculated from EC50 of GIP1-42 obtained in the presence and absence (EC50) of antagonist, and B is the antagonist concentration used.
The in vitro functional assessment of compounds towards human GIP receptor was determined in HEK-293 cells transiently expressing the receptor. On the day of the assay, cells were resuspended in HBSS buffer (Gibco, 14025-50) supplemented with […] (Gibco, 15630-106), 0.1% Pluronic F-68 (Gibco, 24040-032) and 0.1% casein (Sigma, C4765), and plated in 384-well plates at a density of 3500 cells/well. The GIP peptide analogues of the present disclosure were diluted in HBSS buffer supplemented with 20 mM HEPES, 0.1% pluronic, 0.1% casein and 500 uM IBMX. […] Increasing dose of agonist (GIP1-42) was subsequently added to cells and incubated for additionally 30 min at 37° C. The intracellular cAMP was quantitatively determined using the CisBio cAMP Dynamic 2 HTRF Assay Kit. The assay is based on a competition between native cAMP produced by cells and cAMP labeled with the dye d2 for binding to a cryptate labeled antibody. The specific signal (i.e. energy transfer signal) is inversely proportional to the concentration of cAMP in the sample.
The cAMP-d2 conjugate and the antibody anti-cAMP-Cryptate, both diluted in lysis buffer provided in the kit, were added to the cells according to the manufacturer's protocol. The resulting competitive assay was incubated for 60 minutes at room temperature, and the signal was detected by using a PerkinElmer Envision® instrument with excitation at 320 nm and emission at 665 nm and 620 nm. The HTRF ratio (emission at 665 nm/620 nm*10,000) is inversely proportional to the amount of cAMP present and is converted to nM cAMP per well using a cAMP standard curve.

[2] = Physical stability: fibril formation in Thioflavin T (ThT) assay with agitation; type: physicochemical; details: 1 mg/ml, TFA, Phosphate (7.4); 25° C., agitation
Summary of the method: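 Read-out is continuous ThT fluorescence at 486 nm, with lag time taken where signal reaches 10% between pre- and post-transition baselines. Filtered samples (1, 5, 7.5 or 15 mg/ml; pH 7.4 phosphate buffer or NaOH-adjusted water) were stressed at 25° C. by orbital rotation at 300 rpm with one silica bead per well.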

[3] = Solubility by visual inspection of peptide solutions; type: physicochemical; details: 1 mg/ml, TFA, Phosphate (7.4)
Summary of the method: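 Solubility scored by eye: clear, colorless appearance after gentle mixing. Samples prepared at 1, 5, 7.5 or 15 mg/ml in either pH 7.4 water (NaOH-adjusted) or 50 mM sodium phosphate buffer, pH 7.4.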

Row | SMILES | Kb [1] [nM] | Avr lag time (h) [2] | Visual appearance [3]
1 | CC[C@H](C)[C@H](NC(=O)[C@H](CCCCN)NC(=O)[C@H](CCC(=O)O)NC(=O)[C@H](CC(C)C)NC(=O)C(C)(C)NC(=O)[C@@H](NC(=O)[C@H](CO)NC(=O)[C@H](Cc1ccc(O)cc1)NC(=O)[C@H](CCC(=O)O)NC(=O)[C@H](CO)NC(=O)[C@@H](NC(=O)[C@H](Cc1ccccc1)NC(=O)[C@@H](NC(=O)CNC(=O)CCCC(=O)O)[C@@H](C)O)[C@@H](C)CC)[C@@H](C)CC)C(=O)N[C@@H](CCCCNC(=O)COCCOCCNC(=O)COCCOCCNC(=O)CC[C@H](NC(=O)CCCCCCCCCCCCCCCCC(=O)O)C(=O)O)C(=O)N[C@@H](CCC(N)=O)C(=O)N[C@@H](CCC(N)=O)C(=O)N[C@@H](CCC(=O)O)C(=O)N[C@@H](Cc1ccccc1)C(=O)N[C@H](C(=O)N[C@@H](CCC(=O)O)C(=O)N[C@@H](Cc1c[nH]c2ccccc12)C(=O)N[C@@H](CC(C)C)C(=O)N[C@@H](CC(C)C)C(=O)N[C@@H](C)C(=O)N[C@@H](CCC(N)=O)C(=O)N[C@@H](CCCCN)C(=O)N1CCC[C@H]1C(=O)N[C@@H](CO)C(=O)N[C@@H](CO)C(=O)NCC(=O)N[C@@H](C)C(=O)N1CCC[C@H]1C(=O)N1CCC[C@H]1C(=O)N1CCC[C@H]1C(=O)N[C@@H](CO)C(=O)O)C(C)C [AT705] (Glutaryl-GTFISEYSI[Aib]LEKIK([AEEA-AEEA-γGlu-C18 diacid])QQEFVEWLLAQKPSSGAPPPS-OH) | 0.23 | fnd (Fnd = fibrils not detected within experiment time (96 hours) with agitation.) | Clear
2 | CC[C@H](C)[C@H](NC(=O)[C@H](CO)NC(=O)[C@H](Cc1ccc(O)cc1)NC(=O)[C@H](CCC(=O)O)NC(=O)[C@H](CO)NC(=O)[C@@H](NC(=O)[C@H](Cc1ccccc1)NC(=O)[C@@H](NC(=O)CNC(=O)CCCC(=O)O)[C@@H](C)O)[C@@H](C)CC)C(=O)N[C@@H](C)C(=O)N[C@@H](CC(C)C)C(=O)N[C@@H](CCC(=O)O)C(=O)N[C@@H](CCCCN)C(=O)N[C@H](C(=O)N[C@@H](CCCCNC(=O)COCCOCCNC(=O)COCCOCCNC(=O)CC[C@H](NC(=O)CCCCCCCCCCCCCCCCC(=O)O)C(=O)O)C(=O)N[C@@H](CCC(N)=O)C(=O)N[C@@H](CCC(N)=O)C(=O)N[C@@H](CCC(=O)O)C(=O)N[C@@H](Cc1ccccc1)C(=O)N[C@H](C(=O)N[C@@H](CCC(=O)O)C(=O)N[C@@H](Cc1c[nH]c2ccccc12)C(=O)N[C@@H](CC(C)C)C(=O)N[C@@H](CC(C)C)C(=O)N[C@@H](C)C(=O)N[C@@H](CCC(N)=O)C(=O)N[C@@H](CCCCN)C(=O)N1CCC[C@H]1C(=O)N[C@@H](CO)C(=O)N[C@@H](CO)C(=O)NCC(=O)N[C@@H](C)C(=O)N1CCC[C@H]1C(=O)N1CCC[C@H]1C(=O)N1CCC[C@H]1C(=O)N[C@@H](CO)C(=O)O)C(C)C)[C@@H](C)CC [AT707] (Glutaryl-GTFISEYSIALEKIK([AEEA-AEEA-γGlu-C18 diacid])QQEFVEWLLAQKPSSGAPPPS-OH) | 0.28 | – | –
3 | CC[C@H](C)[C@H](NC(=O)[C@H](CCCCN)NC(=O)[C@H](CCC(=O)O)NC(=O)[C@H](CCSC)NC(=O)C(C)(C)NC(=O)[C@@H](NC(=O)[C@H](CO)NC(=O)[C@H](Cc1ccc(O)cc1)NC(=O)[C@H](CCC(=O)O)NC(=O)[C@H](CO)NC(=O)[C@@H](NC(=O)[C@H](Cc1ccccc1)NC(=O)[C@@H](NC(=O)CNC(=O)[C@@H](N)CCC(=O)O)[C@@H](C)O)[C@@H](C)CC)[C@@H](C)CC)C(=O)N[C@@H](CCCCNC(=O)CCCCCCCCCCCCCCC(=O)O)C(=O)N[C@@H](CCC(N)=O)C(=O)N[C@@H](CCC(N)=O)C(=O)N[C@@H](CC(=O)O)C(=O)N[C@@H](Cc1ccccc1)C(=O)N[C@H](C(=O)N[C@@H](CCC(=O)O)C(=O)N[C@@H](Cc1c[nH]c2ccccc12)C(=O)N[C@@H](CC(C)C)C(=O)N[C@@H](CC(C)C)C(=O)N[C@@H](C)C(=O)N[C@@H](CCC(N)=O)C(=O)N[C@@H](CCCCN)C(=O)N1CCC[C@H]1C(=O)N[C@@H](CO)C(=O)N[C@@H](CO)C(=O)NCC(=O)N[C@@H](C)C(=O)N1CCC[C@H]1C(=O)N1CCC[C@H]1C(=O)N1CCC[C@H]1C(=O)N[C@@H](CO)C(=O)O)C(C)C [AT716] (H-EGTFISEYSI[Aib]MEKIK(C16 diacid)QQDFVEWLLAQKPSSGAPPPS-OH; N-terminus assumed) | 0.29 | – | –
4 | CC[C@H](C)[C@H](NC(=O)[C@H](CCCCN)NC(=O)[C@H](CCC(=O)O)NC(=O)[C@H](CC(C)C)NC(=O)C(C)(C)NC(=O)[C@@H](NC(=O)[C@H](CO)NC(=O)[C@H](Cc1ccc(O)cc1)NC(=O)[C@H](CCC(=O)O)NC(=O)[C@H](CO)NC(=O)[C@@H](NC(=O)[C@H](Cc1ccccc1)NC(=O)[C@@H](NC(=O)CNC(=O)CCCCC(=O)O)[C@@H](C)O)[C@@H](C)CC)[C@@H](C)CC)C(=O)N[C@@H](CCCCNC(=O)COCCOCCNC(=O)COCCOCCNC(=O)CC[C@H](NC(=O)CCCCCCCCCCCCCCCCC(=O)O)C(=O)O)C(=O)N[C@@H](CCC(N)=O)C(=O)N[C@@H](CCC(N)=O)C(=O)N[C@@H](CCC(=O)O)C(=O)N[C@@H](Cc1ccccc1)C(=O)N[C@H](C(=O)N[C@@H](CCC(=O)O)C(=O)N[C@@H](Cc1c[nH]c2ccccc12)C(=O)N[C@@H](CC(C)C)C(=O)N[C@@H](CC(C)C)C(=O)N[C@@H](C)C(=O)N[C@@H](CCC(N)=O)C(=O)N[C@@H](CCCCN)C(=O)N1CCC[C@H]1C(=O)N[C@@H](CO)C(=O)N[C@@H](CO)C(=O)NCC(=O)N[C@@H](C)C(=O)N1CCC[C@H]1C(=O)N1CCC[C@H]1C(=O)N1CCC[C@H]1C(=O)N[C@@H](CO)C(=O)O)C(C)C [AT753] (Adipoyl-GTFISEYSI[Aib]LEKIK([AEEA-AEEA-γGlu-C18 diacid])QQEFVEWLLAQKPSSGAPPPS-OH) | 0.23 | – | –
